Results on 16 compounds are retold here after publication PMC10641813 (Journal of Medicinal Chemistry, 2023).

“And” between values parts separate entries of the source, which are not always exact repeats. Equal entries are not always repeated. Where two headings read alike, the source gives them in different places.

The Ki is a dissociation constant, usually derived from enzyme kinetics or from competition with a known ligand. Low readings indicate a stronger hold on the target, high ones a looser hold on the target. As usually defined, the IC50 is the concentration that inhibits the measured activity by half. For orientation: EC50 means the concentration that produces a half-maximal response. What is called viability is the share of living cells, or the viability signal relative to a control.

For series [1], the target named is T1, hCA XII (Homo sapiens, UniProt O43570).
T1 construct: made in house
Briefly: Stopped flow CO2 hydrase assay, hCA XII. Type of series: biochemical. To be noted: stopped flow technique, mean from three assays.

Series [2] has as its system tubulin. Briefly: Tubulin assembly (polymerization) assay. Type of series: biochemical. The following applies: at 20 μM.
Experimental: The reaction mixtures contained 0.8 M monosodium glutamate (pH 6.6 with HCl in a 2 M stock solution), 10 μM tubulin, 4% (v/v) DMSO, and varying concentrations of compound. […] The extent of the reaction was measured.
Series [3] has as its system MCF-7 cells. In words: Inhibition of growth of MCF-7 cells. Type of series: cell-based, human. The procedure:
(§1) ; 11 and 15, NCI/ADR-RES and OVCAR-8 cells) to 4.8 (19, OVCAR-8 cells). […] . […] Cells were seeded in 96-well plates.

The subject of series [4] is OVCAR-8 cells. Briefly: Inhibition of growth of OVCAR-8 cells. Type of series: cell-based, human. To be noted: ovarian tumor cell line 8, 96 h. Here is the method:
as §1

In series [5] the test system is NCI/ADR-RES cells. Briefly: Inhibition of growth of NCI/ADR-RES DOX-resistant cells. Type of series: cell-based, human. The following applies: for IC50: DOX-resistant cell line derived from OVCAR-8, 96 h. Here is the method:
as §1

The target in series [6] is T2, hCA IX (Homo sapiens, UniProt Q16790).
T2 construct: made in house
Briefly: Stopped flow CO2 hydrase assay, hCA IX. Type of series: biochemical.

Series [7] concerns tubulin. The following applies: tubulin assembly; read-out: Tubulin IC50 ± SD; cited from earlier work.
Series [8] deals with tubulin. To be noted: cited from earlier work.
For series [9], the target named is T3, hCA I (Homo sapiens, UniProt P00915).
T3 construct: made in house
In words: Stopped flow CO2 hydrase assay, hCA I. The series is classed as biochemical. To be noted: for fold reduction in the inhibition of hCA I: relative to 11 (sulfonamide at para position); for Ki: stopped flow technique, mean from three assays.

Series [10] deals with T4, hCA II (Homo sapiens, UniProt P00918).
T4 construct: made in house
In words: Stopped flow CO2 hydrase assay, hCA II. The series is classed as biochemical. To be noted: stopped flow technique, mean from three assays.

Series [11] deals with SW480 cells. In words: Inhibition of growth of SW480 cells (XTT). To be noted: read-out: IC50 SW480; human colorectal carcinoma cells; combinations: each compound at its IC50 concentration. Background: Tetrazolium assays rely on reduction of a dye to a coloured formazan, in cell work by metabolically active cells.
Experimental: (§3) In drug combination studies, each compound was used at the corresponding IC50 concentration.
(§4) Cells were grown in Dulbecco’s modified Eagle’s medium (D-MEM) supplemented with 10% fetal bovine serum (FBS) at 37 °C with 5% CO2. In all experiments, 300,000 cells were plated in 9 cm^2 dishes and exposed to test compound dissolved in DMSO (0.1% final concentration) at the indicated concentrations. […] Cells were kept at low passage, returning to the original frozen stocks every 3–4 months.
The subject of series [12] is SW620 cells. In words: Inhibition of growth of SW620 cells (XTT). To be noted: read-out: IC50 SW620; human colorectal carcinoma cells; combinations: each compound at its IC50 concentration.
Experimental: as §3, §4
For series [13], the system named is HCT116 cells. In words: Inhibition of growth of HCT116 cells (MTT). The following applies: read-out: IC50 HCT116; human colorectal carcinoma cells; combinations: each compound at its IC50 concentration.
Experimental: as §3, §4
The subject of series [14] is HT29/DX cells. Briefly: Viability of HT29/DX cells with DOX alone or coincubated with 15 (WST-1). The following applies: 5 μM DOX alone, 72 h. The series is classed as cell-based, human. The procedure:
(§2) Cells were seeded in 96-well plates.

Series [15] in a line: Viability of MDCK cells with DOX alone or coincubated with 15 (WST-1). The series is classed as cell-based, canine. To be noted: dog, MDCK cells (sensitive, parental); read-out: cell viability. The procedure:
as §2

Series [16] relates to MDCK/P-gp cells. Briefly: Viability of MDCK/P-gp cells with DOX alone or coincubated with 15 (WST-1). The series is classed as cell-based, canine. To be noted: 5 μM DOX alone, 72 h. The procedure:
as §2

For series [17], the system named is NCI/ADR-RES cells. Also noted: method as in PMID 22044164. The following applies: DOX-resistant cell line; cited from earlier work.
Setting [18] is: human nonmetastatic breast cancer epithelial cells.
[19] abbreviates: stopped flow technique, mean from three assays.

T1 sequence (O43570 25-354): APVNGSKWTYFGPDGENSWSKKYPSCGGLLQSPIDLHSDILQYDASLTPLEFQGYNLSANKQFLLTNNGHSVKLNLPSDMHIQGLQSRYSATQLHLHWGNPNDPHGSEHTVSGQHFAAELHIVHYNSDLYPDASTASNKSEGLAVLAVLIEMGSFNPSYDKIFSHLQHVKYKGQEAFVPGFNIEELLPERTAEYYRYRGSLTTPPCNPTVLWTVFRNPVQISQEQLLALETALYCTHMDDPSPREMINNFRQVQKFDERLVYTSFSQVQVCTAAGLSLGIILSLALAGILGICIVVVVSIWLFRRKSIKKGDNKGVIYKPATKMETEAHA
T3 sequence (P00915 whole entry): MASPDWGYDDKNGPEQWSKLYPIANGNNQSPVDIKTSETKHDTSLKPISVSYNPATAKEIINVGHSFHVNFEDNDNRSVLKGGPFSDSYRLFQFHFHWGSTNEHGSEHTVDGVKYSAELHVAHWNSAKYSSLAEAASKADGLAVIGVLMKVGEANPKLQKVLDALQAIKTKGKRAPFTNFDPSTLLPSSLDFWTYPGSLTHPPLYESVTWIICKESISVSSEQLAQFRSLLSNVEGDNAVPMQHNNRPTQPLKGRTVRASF

In turn, “4-(3-(3,4,5-trimethoxybenzoyl)-1H-pyrrol-1-yl)benzenesulfonamide [Compound 11]” gave a Ki in series [1] of 11.5 nM. The “inhibition of tubulin assembly” value in [2] was “did not inhibit tubulin assembly”. The IC50 in series [3] (setting [18]) was 3900 ± 80 nM; in series [4], 1900 ± 70 nM; in series [5] it was 1900 nM and 2200 nM.

As to “4-(3-Benzoyl-1H-indol-1-yl)benzenesulfonamide [Compound 18]”, the Ki in series [6] was 31.6 nM; in series [1], 52 nM.

On to “4-(3-Benzoyl-1H-pyrrol-1-yl)benzenesulfonamide [Compound 10]”, for which the Ki in series [6] (setting [19]) is 66 nM; in series [1], 47.1 nM.

As for “4-(3-Benzoyl-4-phenyl-1H-pyrrol-1-yl)benzenesulfonamide [Compound 14]”, the Ki in series [6] (setting [19]) was found to be 38.6 nM; in [1], 59.4 nM.

Consider `COc1ccc(/C=C\c2cc(OC)c(OC)c(OC)c2)cc1O` [CSA4, combretastatin A-4, reference compound], for which, in [3] (Homo sapiens, MCF7, reference compound in the MCF-7 assay), the IC50 came to 15 nM.

`COc1cc(C(=O)c2ccn(-c3ccccc3)c2)cc(OC)c1OC` [Compound 2]: the IC50 in [7] was 1500 nM. Also, the “inhibition of colchicine binding” value in series [8] was 81%.

Consider `COc1cc(C(=O)c2cn(-c3ccccc3)cc2-c2ccccc2)cc(OC)c1OC` [Compound 3], for which the IC50 in series [7] was 1100 nM. Further, the “inhibition of colchicine binding” value in series [8] was 66%.

For `COc1cc(C(=O)c2ccn(-c3cccc(S(N)(=O)=O)c3)c2)cc(OC)c1OC` [Compound 12, 3-(3-(3,4,5-Trimethoxybenzoyl)-1H-pyrrol-1-yl)benzenesulfonamide], in series [9], the “fold reduction in the inhibition of hCA I” value turned out to be 6.7 fold. Further, the Ki was found to be 644 nM in series [9], 84.2 nM in series [10], 34.7 nM in [6] (setting [19]) and 21.3 nM in series [1]. Also, in [5] (Homo sapiens, NCI/ADR-RES, DOX-resistant cell line), the EC50 lay in the range of 2100 to 2200 nM.

Consider `COc1cc(C(=O)c2ccn(-c3ccccc3S(N)(=O)=O)c2)cc(OC)c1OC` [Compound 13, 2-(3-(3,4,5-Trimethoxybenzoyl)-1H-pyrrol-1-yl)benzenesulfonamide], for which the “fold reduction in the inhibition of hCA I” value in series [9] came out at 61.0 fold. For the same compound, the Ki in series [9] was 5840 nM; in series [10], 888 nM; in series [6] (setting [19]), 229 nM; in series [1], 425 nM.

`COc1cc(C(=O)c2cn(-c3cccc(S(N)(=O)=O)c3)cc2-c2ccccc2)cc(OC)c1OC` [Compound 16, 3-(3-Phenyl-4-(3,4,5-trimethoxybenzoyl)-1H-pyrrol-1-yl)benzenesulfonamide]: the Ki in series [9] was determined as 1030 nM; in [10], 186 nM; in [6] (setting [19]) it was 39.1 nM; in series [1], 28.9 nM.

On to `COc1cc(C(=O)c2cn(-c3ccccc3S(N)(=O)=O)cc2-c2ccccc2)cc(OC)c1OC` [Compound 17, 2-(3-Phenyl-4-(3,4,5-trimethoxybenzoyl)-1H-pyrrol-1-yl)benzenesulfonamide], for which the Ki in series [9] was greater than 10000 nM; in series [10] it was greater than 10000 nM; in [6] (setting [19]) it was 8860 nM; in series [1], 1000 nM.

`COc1cc(C(=O)c2cn(-c3ccc(S(N)(=O)=O)cc3)c3ccccc23)cc(OC)c1OC` [Compound 19, 4-(3-(3,4,5-Trimethoxybenzoyl)-1H-indol-1-yl)benzenesulfonamide]: the Ki in series [9] was determined as 446 nM; in [10] it was 67.8 nM; in series [6], 7.3 nM. For the same compound, in [2], the “inhibition of tubulin assembly” value is “partial inhibition”. In addition, the 50% inhibitory concentration (IC50) came to 3600 ± 1000 nM in series [3] (setting [18]); 4800 ± 300 nM in [4]; 2100 ± 200 nM in [5]; 37400 ± 1400 nM in series [11]; 45400 ± 1700 nM in series [12]; 14900 ± 1300 nM in series [13].

Regarding `COc1cc(C(=O)c2cn(-c3cccc(S(N)(=O)=O)c3)c3ccccc23)cc(OC)c1OC` [Compound 20, 3-(3-(3,4,5-Trimethoxybenzoyl)-1H-indol-1-yl)benzenesulfonamide], the Ki in series [9] is 943 nM; in [10], 229 nM; in [6] (setting [19]), 69 nM; in [1], 58.1 nM.

Regarding `COc1cc(C(=O)c2cn(-c3ccccc3S(N)(=O)=O)c3ccccc23)cc(OC)c1OC` [Compound 21, 2-(3-(3,4,5-Trimethoxybenzoyl)-1H-indol-1-yl)benzenesulfonamide], the Ki in series [9] was greater than 10000 nM; in series [10], greater than 10000 nM; in series [6] (setting [19]), 7750 nM; in series [1], 1190 nM.

In the case of `COc1cccc2c1C(=O)c1c(O)c3c(c(O)c1C2=O)C[C@@](O)(C(=O)CO)C[C@@H]3O[C@H]1C[C@H](N)[C@H](O)[C@H](C)O1` [DOX, doxorubicin, reference compound], the cell viability result in series [14] and in [16] was “did not affect the viability” in each case. For the same compound, in series [15], the viability at 72 h, 5 μM is less than 30%.

On to `CCC1=C[C@@H]2CN(C1)Cc1c([nH]c3ccccc13)[C@@](C(=O)OC)(c1cc3c(cc1OC)N(C)[C@H]1[C@@](O)(C(=O)OC)[C@H](OC(C)=O)[C@]4(CC)C=CCN5CC[C@]31[C@@H]54)C2` [vinorelbine], for which, in [17], the IC50 was 5000 ± 1000 nM.
